Measurements taken from ChEMBL document CHEMBL1128862, “Tricyclic cephems as inhibitors of human leukocyte elastase. thieno[3,4-c]cepham sulfones and pyrrolo[3,4-c]cepham sulfones” (Bioorg Med Chem Lett, 1995).

What was measured:
[1] = Hydrolytic stability at 37 degrees Centigrade in 50 mM phosphate buffer (2 % v/v MeCN as solubilising vehicle) at pH 7.4; assay type: physicochemical
[2] = biological target: T1, Neutrophil elastase (Homo sapiens) (UniProt P08246); test: Inhibitory activity against human leukocyte elastase (HLE) expressed as second order inhibition rate constant
T1 sequence (whole entry): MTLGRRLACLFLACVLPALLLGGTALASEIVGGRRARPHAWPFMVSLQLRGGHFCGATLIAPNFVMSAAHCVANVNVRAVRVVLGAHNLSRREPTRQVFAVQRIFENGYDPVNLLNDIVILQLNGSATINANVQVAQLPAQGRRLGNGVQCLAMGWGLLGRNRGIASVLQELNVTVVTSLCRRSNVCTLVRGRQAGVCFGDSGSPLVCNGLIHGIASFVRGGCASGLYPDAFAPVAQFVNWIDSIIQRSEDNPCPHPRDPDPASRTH

[3] = Hydrolytic stability at 37 degrees Celsius in 50 mM phosphate buffer (20 % v/v MeCN as solubilising vehicle) at pH 7.4; assay type: physicochemical

SMILES	half-life [1] [days]	k on [2] [M⁻¹ s⁻¹]	half-life [3] [days]
CO[C@H]1C(=O)N2c3c(c[nH]c3C(C)(C)C)CS(=O)(=O)[C@H]12	21.2	1300	
CO[C@H]1C(=O)N2c3c(cn(-c4ccc([N+](=O)[O-])cc4)c3-c3ccccc3)CS(=O)(=O)[C@H]12		11000	> 125
CO[C@H]1C(=O)N2c3c(csc3C(C)(C)C)CS(=O)(=O)[C@H]12	9.17	80	

Results, then the compound that gave them:

half-life [1] [days]	k on [2] [M⁻¹ s⁻¹]	half-life [3] [days]	SMILES
1.42	270		CO[C@H]1C(=O)N2c3c(csc3-c3ccccc3)CS(=O)(=O)[C@H]12
33.3	2100		CO[C@H]1C(=O)N2c3c(cn(C(=O)C(C)(C)C)c3-c3ccccc3)CS(=O)(=O)[C@H]12
23.8	2500		CO[C@H]1C(=O)N2c3c(c[nH]c3-c3ccccc3)CS(=O)(=O)[C@H]12
